Test results as given in article PMC6403188, “Species-Specific Structural Requirements of Alpha-Branched Trehalose Diester Mincle Agonists” (Frontiers in Immunology, 2019).

Experiments:
human Mincle = biological target: T1, human Mincle (Homo sapiens, UniProt Q9ULY5); experiment: HEK cells expressing human Mincle with NF-κB-driven SEAP reporter; type: cell-based; conditions: plate-coated compound, 24 h
T1 construct: host or cells: HEK (HEK-Blue) cells with NF-κB-driven SEAP reporter
T1 sequence (Q9ULY5 1-219): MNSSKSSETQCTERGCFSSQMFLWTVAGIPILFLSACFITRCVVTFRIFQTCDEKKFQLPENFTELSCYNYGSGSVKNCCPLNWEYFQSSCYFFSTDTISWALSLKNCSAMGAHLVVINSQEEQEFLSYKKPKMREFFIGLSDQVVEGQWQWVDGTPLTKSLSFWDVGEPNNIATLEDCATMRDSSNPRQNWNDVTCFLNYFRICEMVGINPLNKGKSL
Method: (§1) Human and mouse Mincle expressing HEK cells were obtained from Invivogen (San Diego, CA). Cells were cultured according to the manufactures instructions in DMEM with 10% FBS, 50 U/ml penicillin, […] streptomycin, […] Normocin, 2 mM L-glutamine, 30 μg/ml blasticidin, 1 μg/ml puromycin and 1x HEK-Blue™ CLR Selection. For assay, indicated compounds were serially diluted in diluent (50%IPA/50% isooctane), 20 μl of a 10x final concentration were applied to the bottom of a 96-well tissue culture plate and the solvent was evaporated for >1 h in a biosafety hood. HEK cells were applied to the plates at a density of 3 × 10^5 cells/well and incubated for 18–24 h at 37°C. Cell supernatants were harvested and analyzed via the manufacturer's instructions using Hek-Blue^TM Detection. SEAP activity was assessed by reading the optical density (OD) at 620–655 nm with a microplate reader; data are expressed as the fold change in OD over vehicle treated cells.
(§2) To investigate the capacity of these molecules to bind to and activate the Mincle receptor, we used human embryonic kidney (HEK) cells expressing the human or mouse Mincle receptor along with an NF-κB-driven secreted embryonic alkaline phosphatase (SEAP) reporter. Many of the αTDE compounds were able to induce production of SEAP in a dose dependent manner (Figure 2). HEK null cells (HEK cells containing the NF-kB reporter without Mincle receptor) were used as a negative controls to confirm the receptor specificity of the compounds in HEK cells expressing human or mouse Mincle reporter (Supplemental Figure 4). […] The relative activity of TDM and TDB in the human and mouse HEK cells is consistent with the results reported by others ([20]). […] This synthetic version is a shorter chain version of the lipid-derived one reported to be “human-specific” ([28]).
(§3) Figure 2 Activation of human or mouse Mincle in response to synthetic αTDE compounds. The indicated compounds were dissolved in 50% isopropanol/isooctane, serially diluted in vehicle and then dried to the bottom of a tissue culture plate. HEK cells transfected with human (A–C) or mouse (D–F) Mincle and an NF-κB-driven SEAP reporter were incubated with the compounds for 24 h followed by assessment of the supernatants for SEAP levels. Data are represented as fold change in OD650 over vehicle treated cells. Graphs are mean values from three independent experiments ± SEM. Table in (G) represents the average calculated EC50 and average max SEAP value (± SD, n = 3) for each compound in each cell line. […]

mouse Mincle = biological target: T2, mouse Mincle (Mus musculus, UniProt Q9R0Q8); experiment: HEK cells expressing mouse Mincle with NF-κB-driven SEAP reporter; type: cell-based
T2 construct: host or cells: HEK (HEK-Blue) cells with NF-κB-driven SEAP reporter
T2 sequence (Q9R0Q8 1-214): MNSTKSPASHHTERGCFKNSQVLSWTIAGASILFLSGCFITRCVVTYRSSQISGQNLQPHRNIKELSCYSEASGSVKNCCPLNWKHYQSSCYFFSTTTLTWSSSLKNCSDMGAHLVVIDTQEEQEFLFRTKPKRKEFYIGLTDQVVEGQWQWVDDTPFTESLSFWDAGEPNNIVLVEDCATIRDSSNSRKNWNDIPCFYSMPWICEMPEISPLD
Method: as §1, §2, §3

[1] = system: Hek Blue human or mouse Mincle-expressing cells; type: cell-based; conditions: top concentrations, 24 h; compared with vehicle only-treated cells
THP-1 cells = experiment: TNFα production from THP-1 cells (ELISA); type: cell-based, human; conditions: plate-coated compound, 24 h
Method: Supernatants were harvested from treated cells following 18–24 h of incubation. Supernatants were analyzed using a DuoSet TNFα ELISA (R&D Systems, Minneapolis, MN) or Luminex multiplex panel for analytes TNFα, IL-1β, IL-6, IFNγ, IL-12p70, and IL-23 (R&D Systems) per the manufacturer's instructions. Multiplex analysis was performed using a Luminex 200 instrument (Luminex Corporation) and analyzed with StarStation2.3 software. ELISAs were read on a plate reader at 450 nm and cytokine concentration was calculated by fitting the standard curve OD values to a 4-parameter logistical model using curve fitting software (XLfit, IDBS, Alameda, CA).
Next, investigation into activity of the alpha-branched TDE compounds was extended to include both human and murine monocytic cell lines, THP-1 and RAW264.7, respectively. These cell lines have previously been reported as responsive to the Mincle receptor agonists TDM and TDB ([30], [31]).
Figure 3 TNFα production from human THP-1 cells in response to stimulation with synthetic αTDE compounds. The indicated compounds were dissolved in 50% isopropanol/isooctane, serially diluted in vehicle and then dried to the bottom of a tissue culture plate. THP-1 cells were applied to the compound-coated plates and incubated at 37°C; supernatant was harvested 24 h later and analyzed for TNFα via ELISA (A-E). Results from the 200 μg/ml concentration vs. each compounds acyl chain length are shown in (F). Data points are average of at least two independent experiments ± SD.

Compound: CCCCCCCCCCCCCCCCCCCCCC(=O)OC[C@H]1O[C@H](O[C@H]2O[C@H](COC(=O)CCCCCCCCCCCCCCCCCCCCC)[C@@H](O)[C@H](O)[C@H]2O)[C@H](O)[C@@H](O)[C@@H]1O [TDB, trehalose dibehenate, reference compound]
- SEAP induction / activation of human Mincle-expressing HEK cells (in words) (human Mincle): robust ability to activate
- Relative activity in mouse vs. human Mincle HEK cells (mouse Mincle; comparison of mouse and human Mincle receptor transfected HEK cells): more potent in the mouse vs. the human
- SEAP induction / activation of mouse Mincle-expressing HEK cells (in words) (mouse Mincle; plate-coated compound, 24 h): robust ability to activate
- Cell viability of Mincle HEK cells [1]: marked decreases in viability
- TNFα induction from THP-1 cells (in words) (THP-1 cells): activity at the highest concentrations tested
